Data set [1] relates to Mus musculus. Briefly: Toxicity in B10.RIII mouse assessed as increase of serum insulin level at 30 mg/kg, po qd for 5 weeks. Type of data set: organism-based. Set-up: dose 30 mg/kg, route oral. Conditions: in vivo, 840 h.
In data set [2] the test system is Rattus norvegicus. Briefly: AUC (infinity) in Sprague-Dawley rat at 30 mg/kg, po. Type of data set: ADME, organism-based, Plasma. More on the design: time infinity, dose 30 mg/kg, route oral. Particulars: in vivo.
For data set [3], the system named is Mus musculus. Briefly: Toxicity in collagen and Freund's complete adjuvant-induced B10.RIII mouse arthritis model assessed as increase of free fatty acids level at 30 mg/kg, po qd for 5 weeks. Type of data set: organism-based. Set-up: dose 30 mg/kg, route oral. Conditions: in vivo, 840 h.
The target in data set [4] is T1, Glucocorticoid receptor (Homo sapiens, UniProt P04150).
T1 sequence (P04150 whole entry): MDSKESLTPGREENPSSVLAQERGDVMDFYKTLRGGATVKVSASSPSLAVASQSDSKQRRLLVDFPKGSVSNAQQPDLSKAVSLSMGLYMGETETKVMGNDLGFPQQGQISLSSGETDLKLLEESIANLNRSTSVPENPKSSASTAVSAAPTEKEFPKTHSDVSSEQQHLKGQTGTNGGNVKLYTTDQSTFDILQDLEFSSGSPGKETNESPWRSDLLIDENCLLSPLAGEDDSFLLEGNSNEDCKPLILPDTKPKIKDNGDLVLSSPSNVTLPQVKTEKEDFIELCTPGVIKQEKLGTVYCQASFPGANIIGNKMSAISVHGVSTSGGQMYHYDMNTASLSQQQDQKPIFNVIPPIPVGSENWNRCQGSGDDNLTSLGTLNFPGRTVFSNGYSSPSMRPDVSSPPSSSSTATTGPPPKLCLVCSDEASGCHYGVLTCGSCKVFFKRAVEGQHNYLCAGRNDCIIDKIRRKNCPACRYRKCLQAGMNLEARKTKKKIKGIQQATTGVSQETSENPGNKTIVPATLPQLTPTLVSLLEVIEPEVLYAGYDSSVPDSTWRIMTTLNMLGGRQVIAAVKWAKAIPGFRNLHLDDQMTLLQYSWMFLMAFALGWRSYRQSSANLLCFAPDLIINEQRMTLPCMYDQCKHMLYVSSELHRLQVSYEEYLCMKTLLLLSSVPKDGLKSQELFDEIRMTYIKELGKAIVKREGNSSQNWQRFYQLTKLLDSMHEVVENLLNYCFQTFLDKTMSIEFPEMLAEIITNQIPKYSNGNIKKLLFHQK
As to the kind of experiment: Transrepression activity at glucocorticoid receptor in HFF assessed as inhibition of IL-1-induced IL-6 production after 18 to 24 hrs by ELISA. Type of data set: cell-based.

Data set [5] has as its system Rattus norvegicus. As to the kind of experiment: Oral bioavailability in Sprague-Dawley rat at 30 mg/kg. Type of data set: ADME, organism-based. Conditions: in vivo.
Data set [6] addresses T1, Glucocorticoid receptor. As to the kind of experiment: Transactivation activity at glucocorticoid receptor in human HeLa cells transfected with luciferase gene linked to MMTV promoter by luciferase assay. Type of data set: cell-based.
Data set [7] addresses T1, Glucocorticoid receptor. Briefly: Binding affinity to glucocorticoid receptor expressed in baculovirus-infected insect cells using tetramethylrhodamine labeled Dexamethasone by fluorescence polarization microplate assay.
Data set [8] concerns Mus musculus. As to the kind of experiment: Toxicity in B10.RIII mouse assessed as increase of body fat content at 30 mg/kg, po qd for 5 weeks. Type of data set: organism-based. Set-up: dose 30 mg/kg, route oral. Particulars: in vivo, 840 h.
For data set [9], the target named is T1, Glucocorticoid receptor. Briefly: Transactivation activity at glucocorticoid receptor in HFF assessed as induction of aromatase activity after 18 to 24 hrs by ELISA. Type of data set: cell-based.
Data set [10] addresses T2, Mineralocorticoid receptor (Homo sapiens, UniProt P08235).
T2 sequence (P08235 whole entry): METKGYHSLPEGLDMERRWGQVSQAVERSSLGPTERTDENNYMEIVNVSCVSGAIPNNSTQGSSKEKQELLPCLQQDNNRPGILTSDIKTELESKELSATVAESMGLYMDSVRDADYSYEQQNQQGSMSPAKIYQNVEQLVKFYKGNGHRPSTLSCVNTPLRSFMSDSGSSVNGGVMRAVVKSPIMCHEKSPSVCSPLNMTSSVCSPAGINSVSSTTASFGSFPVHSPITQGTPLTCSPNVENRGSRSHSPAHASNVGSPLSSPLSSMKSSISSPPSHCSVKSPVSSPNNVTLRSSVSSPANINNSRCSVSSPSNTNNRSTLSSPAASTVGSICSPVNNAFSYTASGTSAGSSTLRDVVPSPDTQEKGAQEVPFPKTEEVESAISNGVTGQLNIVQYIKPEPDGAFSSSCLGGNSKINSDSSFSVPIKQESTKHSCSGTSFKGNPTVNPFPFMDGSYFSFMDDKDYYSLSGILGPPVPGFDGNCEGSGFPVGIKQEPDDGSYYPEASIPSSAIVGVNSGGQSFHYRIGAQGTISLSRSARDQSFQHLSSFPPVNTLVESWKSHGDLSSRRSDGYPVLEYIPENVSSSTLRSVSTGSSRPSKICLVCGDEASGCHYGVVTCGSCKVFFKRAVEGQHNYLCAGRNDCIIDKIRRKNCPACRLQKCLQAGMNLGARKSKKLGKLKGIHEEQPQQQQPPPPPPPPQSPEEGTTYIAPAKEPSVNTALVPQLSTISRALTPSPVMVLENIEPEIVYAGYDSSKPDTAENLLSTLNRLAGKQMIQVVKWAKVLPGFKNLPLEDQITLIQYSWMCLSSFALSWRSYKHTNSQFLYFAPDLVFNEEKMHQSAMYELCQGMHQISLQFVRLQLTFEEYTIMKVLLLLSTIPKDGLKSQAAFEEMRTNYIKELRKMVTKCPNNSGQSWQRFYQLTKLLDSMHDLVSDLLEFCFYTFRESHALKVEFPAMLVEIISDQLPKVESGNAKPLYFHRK
As to the kind of experiment: Binding affinity to mineralocorticoid receptor expressed in baculovirus-infected insect cells using tetramethylrhodamine labeled Dexamethasone by fluorescence polarization microplate assay.

In data set [11] the test system is Mus musculus. Briefly: Toxicity in collagen and Freund's complete adjuvant-induced B10.RIII mouse arthritis model assessed as increase of triglyceride level at 30 mg/kg, po qd for 5 weeks. Type of data set: organism-based. Set-up: dose 30 mg/kg, route oral. Particulars: in vivo, 840 h.
In data set [12] the test system is Mus musculus. Briefly: Toxicity in B10.RIII mouse assessed as increase of triglyceride level at 30 mg/kg, po qd for 5 weeks. Type of data set: organism-based. Set-up: dose 30 mg/kg, route oral. Conditions: in vivo, 840 h.
Data set [13] is described as follows: Volume of distribution at steady state in Sprague-Dawley rat at 5 mg/kg, iv. Type of data set: ADME, organism-based. Set-up: dose 5 mg/kg, route intravenous. Conditions: in vivo, read-out: Vdss.
Data set [14] has as its system Mus musculus. As to the kind of experiment: Antiinflammatory effect in collagen and Freund's complete adjuvant-induced B10.RIII mouse arthritis model assessed as inhibition of disease progression at 30 mg/kg, po qd for 5 weeks. Type of data set: functional. Particulars: 840 h.
The subject of data set [15] is Mus musculus. As to the kind of experiment: Toxicity in collagen and Freund's complete adjuvant-induced B10.RIII mouse arthritis model assessed as increase of body fat content at 30 mg/kg, po qd for 5 weeks. Type of data set: organism-based. Particulars: in vivo, 840 h. More on the design: dose 30 mg/kg, route oral.
A short description of data set [16]: Cmax in Sprague-Dawley rat at 30 mg/kg, po. Type of data set: ADME, organism-based. Set-up: dose 30 mg/kg, route oral. Particulars: in vivo.
Data set [17] concerns Mus musculus. As to the kind of experiment: Toxicity in collagen and Freund's complete adjuvant-induced B10.RIII mouse arthritis model assessed as increase of serum insulin level at 30 mg/kg, po qd for 5 weeks. Type of data set: organism-based. Particulars: in vivo, 840 h. Set-up: dose 30 mg/kg, route oral.
The nature of data set [18]: Half life in Sprague-Dawley rat at 5 mg/kg, iv. Type of data set: ADME, organism-based. Set-up: dose 5 mg/kg, route intravenous. Particulars: in vivo.

The text below walks through data of ChEMBL document CHEMBL1250518, “Nonsteroidal dissociated glucocorticoid agonists containing azaindoles as steroid A-ring mimetics” (J Med Chem, 2010).

pEC50, pIC50: −log10 of the molar value.

On to `CC(C)(C[C@@](O)(Cc1cc2ccncc2[nH]1)C(F)(F)F)c1cc(F)ccc1O`, for which the Activity entry is “Non-toxic” in the data set on Mus musculus [1]; “Non-toxic” with Mus musculus [3]; “Non-toxic” in the data set with Mus musculus [8]; “Non-toxic” in the data set on Mus musculus [11]; “Toxic” with Mus musculus [12]; “Toxic” with Mus musculus [15]. For the same compound, in the data set with Mus musculus [17], the Activity entry was “Toxic”. For the same compound, the exposure (AUC) in the data set on Rattus norvegicus [2] came out at 2236 ng·h/mL. Besides, the pIC50 on Glucocorticoid receptor [4] was 8.48; against Glucocorticoid receptor [6], 7.10; at Glucocorticoid receptor [7] it was 8.68; in [10] it was 6.68. The same compound registered a F in the data set with Rattus norvegicus [5] of 48%. Further, on Glucocorticoid receptor [9], the negative logarithm of the EC50 (pEC50) is 7.52. Also, the Vd in data set [13] stood at 7.6 L/kg. Besides, the inhibition in vivo at 30 mg/kg in the data set with Mus musculus [14] was 92%. The Cmax in [16] is 444 ng/mL. In addition, the half-life in [18] was 1.85 h.
